Drawing on US5691373A, “Nonpeptide endothelin antagonists I” (Warner-Lambert Company, priority 1995, dated 1997), this text covers IC50 for 14 compounds.

For this test, the target named is T1, ETA (Oryctolagus cuniculus, UniProt A5A8K3).
T1 sequence (A5A8K3 21-427): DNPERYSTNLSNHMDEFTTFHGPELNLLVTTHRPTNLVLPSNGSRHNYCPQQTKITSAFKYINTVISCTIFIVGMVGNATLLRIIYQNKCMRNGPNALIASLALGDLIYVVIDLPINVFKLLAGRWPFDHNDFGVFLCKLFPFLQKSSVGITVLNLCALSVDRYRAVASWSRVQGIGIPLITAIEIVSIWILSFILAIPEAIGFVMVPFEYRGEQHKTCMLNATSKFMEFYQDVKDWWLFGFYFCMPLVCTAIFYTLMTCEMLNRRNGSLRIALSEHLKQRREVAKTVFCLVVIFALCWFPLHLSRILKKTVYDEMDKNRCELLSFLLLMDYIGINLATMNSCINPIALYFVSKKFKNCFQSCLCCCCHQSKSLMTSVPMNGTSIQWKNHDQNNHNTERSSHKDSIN
The conditions noted are these: ERBA-A IC50, [125I]-ET-1, rabbit renal artery vascular smooth muscle cells.

Consider `COc1ccc(C2(O)OC(=O)C(c3ccc(Cl)c(Cl)c3)=C2Cc2ccc(C(C)C)cc2)cc1` (centres unmarked) [Example 121, 3-(3,4-Dichlorophenyl)-5-hydroxy-4-(4-isopropylbenzyl)-5-(4-methoxyphenyl)-5H-furan-2-one], for which the IC50 (as a rule, the concentration at which inhibition is half-maximal) amounted to 74 nM.

`COc1ccc(C2(O)OC(=O)C(c3ccc4c(c3)OCO4)=C2Cc2ccccc2)cc1C` (racemic) [Example 290, 2(5H)-Furanone, 3-(1,3-benzodioxol-5-yl)-5hydroxy-5-(4-methoxy-3-methylphenyl)-4-(phenylmethyl)-, (±)-] had an IC50 of 12 nM.

On to `COc1ccc(C2(O)OC(=O)C(c3ccc4c(c3)OCO4)=C2Cc2ccc(C(F)(F)F)cc2)cc1` (centres unmarked) [Example 88, 3-Benzo[1,3]dioxol-5-yl-5-hydroxy-5-(4-methoxyphenyl)-4-(4-trifluoromethylbenzyl)-5H-furan-2-one], for which the IC50 was 250 nM.

`COc1ccc(CC2=C(c3ccc(N(C)C)cc3)C(=O)OC2(O)c2ccc(Cl)cc2)cc1OC` (racemic) [Example 56, 2(5H)-Furanone, 5-(4-chlorophenyl)-4-[(3,4-dimethoxyphenyl)methyl]-3-[4-(dimethylamino)phenyl]-5-hydroxy-, (±)-]: the IC50 was 14000 nM.

Regarding `COc1ccc(C2(O)OC(=O)C(c3ccc(Cl)c(Cl)c3)=C2Cc2ccccc2)cc1` (centres unmarked) [Example 120, 4-Benzyl-3-(3,4-dichlorophenyl)-5-hydroxy-5-(4-methoxyphenyl)-5H-furan-2-one], it took 850 nM to reach half-maximal inhibition (IC50). Against the preceding compound, the IC50 is about 16-fold lower.

`CSc1ccc(C2(O)OC(=O)C(c3ccc4c(c3)OCO4)=C2Cc2ccccc2)cc1` (centres unmarked) [Example 271, 3-Benzo[1,3]dioxol-5-yl-4-benzyl-5-hydroxy-5-(4-methylsulfanylphenyl)-5H-fu ran-2-one] yielded an IC50 of 390 nM. Compared with the last compound, the IC50 is about 2.2-fold lower.

On to `COc1ccc(C2(O)OC(=O)C(c3ccc(F)c(F)c3)=C2Cc2ccc(N(C)C)cc2)cc1` (centres unmarked) [Example 145, 3-(3,4-Difluorophenyl)-4-(4-dimethylaminobenzyl)-5-hydroxy-5-(4-methoxyphenyl)-5H-furan-2-one], for which the IC50 was 1700 nM.

Compound `CC(C)c1ccc(CC2=C(c3ccc(N(C)C)cc3)C(=O)OC2(O)c2ccc(Cl)cc2)cc1` (racemic) [Example 57, 2(5H)-Furanone, 5-(4-chlorophenyl)-3-[(4-(dimethylamino)phenyl]-5-hydroxy-4-[[4-(1-methylethyl)phenyl]methyl]-, (±)-] showed an IC50 of 11000 nM. Compared with the last compound, the IC50 is about 6.5-fold higher.

On to `CCc1ccc(C2(O)OC(=O)C(c3ccc4c(c3)OCO4)=C2Cc2ccccc2)cc1` (centres unmarked) [Example 266, 3-Benzo[1,3]dioxol-5-yl-4-benzyl-5-(4-ethylphenyl)-5-hydroxy-5H-furan-2-one], for which half-maximal inhibition (IC50) was put at 600 nM.

With `COc1ccccc1C1(O)OC(=O)C(c2ccc3c(c2)OCO3)=C1Cc1ccccc1` (centres unmarked) [Example 249, 3-Benzo[1,3]dioxol-5-yl-4-benzyl-5-hydroxy-5-(2-methoxyphenyl)-5H-furan-2-one], the IC50 was found to be 500 nM.

`COc1ccc(C2(O)OC(=O)C(c3ccc4c(c3)OCO4)=C2Cc2cccc3ccccc23)cc1` (centres unmarked) [Example 250, 3-Benzo[1,3]dioxol-5-yl-5-hydroxy-5-(4-methoxyphenyl)-4-naphthalen-1-ylmethyl-5H-furan-2-one] came in with an IC50 of 13 nM. This IC50 lies about 38-fold lower than the previous one.

Consider `COc1ccc(C2(O)OC(=O)C(c3ccc(F)c(F)c3)=C2Cc2ccc(C(C)C)cc2)cc1` (centres unmarked) [Example 144, 3-(3,4-Difluorophenyl)-5-hydroxy-4-(4-isopropylbenzyl)-5-(4-methoxyphenyl)-5H-furan-2-one], for which half-maximal inhibition (IC50) was put at 290 nM.

`COc1ccc(C2(O)OC(=O)C(c3cc(OC)cc(OC)c3)=C2CC2CCCCC2)cc1` (centres unmarked) [Example 275, 2(5H)-Furanone, 4-(cyclohexylmethyl)-3-(3,5-dimethoxyphenyl)-5-hydroxy-5-(4-methoxyphenyl)] came in with a 50% inhibitory concentration (IC50) of 12 nM. Against the preceding compound, the IC50 is about 24-fold lower.

Compound `COc1ccc(C2(O)OC(=O)C(c3ccc4c(c3)OCO4)=C2Cc2ccc(OCc3ccccc3)cc2)cc1` (centres unmarked) [Example 86, 3-Benzo[1,3]dioxol-5-yl-4-(4-benzyloxybenzyl)-5-hydroxy-5-(4-methoxyphenyl) -5H-furan-2-one] registered an IC50 of 310 nM. This IC50 lies about 26-fold higher than the previous one.
